“Also recorded” adds a separate entry of the source. Positions of bridges follow the written chain, without caps; N, C: chain ends. Non-standard residues stand in square brackets, D forms with d. Residues, ends and D or L forms follow the SMILES beside them. *: point of attachment. FITC = O=C1OC2(c3ccc(O)cc3Oc3cc(O)ccc32)c2ccc(NC(=S)*)cc21; PEG6 = NCCOCCOCCOCCOCCOCCOCCC(=O)O; S5 = C=CCCC[C@](C)(N)C(=O)O
How the values were obtained:
[1] = test system: HeLa pLuc 705 cells; assay: % viable cells judged by gated cells compared to negative controls (flow cytometry); type: cell-based
Protocol: (§1) HeLa pLuc705 cells were cultured in high glucose DMEM supplemented with 10% foetal calf serum (Sigma, UK) at 37° C. under an 8% CO2/92% air atmosphere.
(§2) HeLa pLuc705 cells were setup in 96 well plates with the appropriate dilutions of test compounds either FITC labeled peptides or FITC labeled PMO conjugates diluted into complete culture media (up to 100 µM). Cells were then then trypsinised, diluted to 4×10^5 cells per mL and 100 μL added to each well giving a final volume of 200 μL in each well. Cells were then incubated for either 4 or 24 hours at either 4 or 37° c.
(§3) Uptake of fluorescently-labelled PMO and peptides was determined by flow cytometry using an Accuri C6 flow cytometer. Cells were washed with PBS and glycine buffer then released with trypsin, and kept on ice before analysis in PBS containing 2.5% FBS. Cell fluorescence in single live cells was determined using FlowJo software after appropriate gating. Untreated cells were used to establish gating settings for the determination of the % fluorescein-positive cells, mean fluorescent intensity (MFI) was also calculated. Uptake was determined by gating cells that were able exclude cell-impermanent die (To-pro-3) indicating the ability of cells to retain membrane integrity.

[2] = test system: HeLa pLuc 705 cells; assay: Flow cytometry uptake of FITC labeled CPAs (FL1+ cells, MFI); type: cell-based; conditions: 4 hours; for number of FL1 positive cells, cyclized vs non-cyclised (NC) peptide: cyclised peptide compared to its non-cyclised control
Protocol: as §1, §2, §3

Row | Compound | % cell viability compared to RCM1,5-P8M-FITC-3+ ([1]; 4 hours, all concentrations) | % of cells recovered when normalized to untreated controls (% viable cells) ([1]; 4 hours, cyclised versus non-cyclised peptide) | cellular toxicity / impact on cell viability ([1]; all concentrations 0.05 to 100 μM, listed as K1E5-CP8M-FITC) | increase in viability comparing RCM1,5-P8M-FITC to K1E5-P8M-FITC ([1]; over the range of concentrations (0.05 to 100 μM)) | MFI, cyclised vs non-cyclised (NC) peptide ([2]; 2 way ANOVA) | number of FL1 positive cells, cyclized vs non-cyclised (NC) peptide ([2]; 2 way ANOVA) | number of FL1 positive cells, cyclized vs non-cyclised (NC) peptide ([2]; 2 way ANOVA, listed as K1E5-CP8M-FITC) | viable cells over RCM1,5-CP8M-FITC-3+ and RCM1,5-CP8M-FITC-2+ ([1]; 0.05 μM, 4 hours) | MFI compared between RCM1,5 charge variants ([2]; at a given concentration, increase for 3+ at higher concentrations >1 μM) | FL1+ cells compared to other RCM1,5 charge variants ([2]; over a range of concentrations)
1 | CC(C)C[C@@H]1NC(=O)[C@H](CCCNC(=N)N)NC(=O)[C@@H](NC(=O)[C@H](Cc2ccccc2)NC(=O)[C@H](CCCCN)NC(=O)[C@H](CCCNC(=N)N)NC(=O)CCOCCOCCOCCOCCOCCOCCNC(=S)Nc2ccc3c(c2)C(=O)OC32c3ccc(O)cc3Oc3cc(O)ccc32)CCC(=O)NCCCC[C@@H](C(N)=O)NC(=O)[C@H](Cc2ccccc2)NC1=O [K1E5-P8M-FITC] ({FITC-PEG6}-RKFERLFK-NH2; lactam 4-8; N-terminus assumed) | increase | no significant difference | no adverse cellular toxicity; also recorded: do not have any negative impact | 70-99% | no interaction affect | no significant difference | no difference | – | – | –
2 | CC[C@H](C)[C@H](NC(=O)CCOCCOCCOCCOCCOCCOCCNC(=S)Nc1ccc2c(c1)C(=O)OC21c2ccc(O)cc2Oc2cc(O)ccc21)C(=O)N[C@H](C(=O)N[C@@H](Cc1ccccc1)C(=O)N[C@@]1(C)CCCC=CCCC[C@@](C)(C(N)=O)NC(=O)[C@H](Cc2ccccc2)NC(=O)[C@H](CC(C)C)NC(=O)[C@H]([C@@H](C)CC)NC1=O)[C@@H](C)CC [RCM1,5-P8M-FITC-0+] ({FITC-PEG6}-IIF[S5]ILF[S5]-NH2; staple 4-8) | – | – | – | – | – | – | – | increase | no significant difference | increase

Source: patent publication US20220062431A1, “COMPOUNDS COMPRISING STAPLED OR STITCHED PEPTIDES FOR IMPROVED DRUG DELIVERY” (Sutura Therapeutics Ltd, priority 2017, published 2022)
